Test results: patent EP2135515A1, “Taste enhancing compound” (FIRMENICH SA, priority 2008, dated 2009)

assay: Half-tongue test: recognition threshold for velvety mouthcoating, trained sensory panel; assay type: in vivo; conditions: Homo sapiens, pH 4.5, read-out: Mouthfeel threshold
Method: The threshold at which the compound delivered a noticeable velvety mouthcoating was evaluated as follows:
The isolated compound was suspended in water, and, after removing the volatiles in high vacuum (<5 mPa), was freeze-dried twice.
The freeze-dried sample was taken up in water, adjusted to pH 4.5 using hydrochloric acid, and stepwise diluted (1+1) with water. This is referred to herein as "sample 1". A second sample was prepared comprising water (Evian®) adjusted to pH 4.5 using hydrochloric acid. This is referred to herein as "sample 2". Both samples were stored at room temperature.
Twelve panelists with no history of known taste disorders were trained to evaluate the taste of aqueous solutions (2 mL each) of the following standard taste compounds in bottled water (pH 4.5) by using a triangle test as described in the literature (20): sucrose (50 mmol/L) for sweet taste, lactic acid (20 mmol/L) for sour taste, NaCl (20 mmol/L) for salty taste, caffeine (1 mmol/L) for bitter taste, sodium glutamate (3 mmol/L) for umami taste. For the puckering astringency and the velvety astringent, mouth-drying oral sensation, the panel was trained by using gallustannic acid (0.05%) and quercetin-3-O-β-D-glucopyranoside (0.01 mmol/L), respectively, using the half-tongue test (see Scharbert S., Holzmann N., Hofmann T. Identification of the astringent taste compounds in black tea infusions by combining instrumental analysis and human bioresponse. J. Agric. Food Chem. 2004, 52, 3498-3508).
Samples 1 and 2 were presented in order of increasing concentrations to the panel. The panelists, wearing noseclips, were asked to determine the dilution at which a difference was detectable between the samples using the "half-tongue" test. The test was performed three times. When the panelist selected correctly, the same concentration was presented again besides one blank as a proof for the correctness of the data. The geometric mean of the last and the second last concentration was calculated and taken as the individual recognition threshold. The values between individuals and between five separate sessions differed by not more than plus or minus one dilution step.
For comparison with the mouthfeel-enhancing threshold of known ingredients in vanilla extract, the half-tongue test was repeated using vanillic acid, p-hydroxybenzoic acid, guaiacol, p-hydroxybenzaldehyde and vanillin respectively instead of sample 1.

Question: With `O=Cc1ccc(O)cc1` [p-hydroxybenzaldehyde] as the molecule, how does the minimal effective concentration read?
Answer: 205 µM

same assay, conditions: Homo sapiens; half-tongue test, in water pH 4.5, twelve trained panelists wearing noseclips; geometric mean of last and second last concentration; read-out: Mouthfeel threshold

Question: With `O=C(O)c1ccc(O)cc1` [p-hydroxybenzoic acid] as the molecule, how does the minimal effective concentration read?
Answer: 250 µM

Question: With `COc1cc(C=O)ccc1O` [Vanillin] as the molecule, how does the minimal effective concentration read?
Answer: 150 µM

Question: For `COc1cc(C(=O)O)ccc1O` [Vanillic acid], which minimal effective concentration is on record?
Answer: 320 µM

Question: For `COc1ccccc1O` [Guaiacol], which minimal effective concentration is on record?
Answer: 240 µM

Question: With `COc1cc(-c2cc(OC)c(O)c(-c3ccc(O)c(OC)c3)c2)ccc1O` [Sample 1, triguaiacol] as the molecule, how does the minimal effective concentration read?
Answer: 0.01 µM
